Measured values as given in ChEMBL document CHEMBL5441381, “ASAP - In vitro antiviral effect” (2024).

Tested on: SARS-CoV-2
Test: Functional immunofluorescence assay to measure dose dependent changes in antiviral-drug inhibitory efficacy against hCoV-19/USA-WA1/2020 in HeLa-ACE2 cells which are seeded prior to drug treatment, then infected with hCoV-19/USA-WA1/2020. Cells are fixed with 10 % formaldehyde, washed with PBS, permeabilized with permeabilization buffer, then washed with wash buffer. The cells are incubated with nucleoprotein primary antibody IC7C7. Following primary staining, cells are washed with wash buffer and incubated in a solution of with Alexa fluor 488 and DAPI. Infected and uninfected cells are visualized and analyzed by Gen5 software. The assay has been performed by Icahn School of Medicine at Mount Sinai.
Type: organism-based, Homo sapiens
[1] = Severe acute respiratory syndrome coronavirus 2, HeLa-ACE2

`Cc1nn(C)cc1-c1cc2c(N[C@@H](c3ccc4c(c3)S(=O)(=O)CCC4)C(C)C)ncnc2[nH]1` showed an EC50 [1] greater than 20 µM and an EC90 (Severe acute respiratory syndrome coronavirus 2, HeLa-ACE2, Maximum measured 131.643 %, Minimum measured 93.649 %) greater than 20 µM.

In the case of `CC(C)[C@H](Nc1ncnc2[nH]c(-c3cnn(C)c3C#N)cc12)c1ccc2c(c1)NC(=O)CO2`, the EC50 [1] is reported as 1.33 µM and the EC90 (Severe acute respiratory syndrome coronavirus 2, HeLa-ACE2, Baseline response 0 %, Hill slope -0.558, Maximum measured 72.17 %, Maximum response 100 %, Minimum measured 6.652 %, R squared 0.72) is reported as greater than 20 µM.

With `CC(C)[C@@H](Nc1ncnc2[nH]c(-c3cnn(C)c3C#N)cc12)c1ccc2c(n1)NC(=O)CO2` the EC50 [1] was 2.46 µM and the EC90 (Severe acute respiratory syndrome coronavirus 2, HeLa-ACE2, Baseline response 0 %, EC90 CI (lower) 0.524 uM, EC90 CI (upper) 2.251 uM, Hill slope -2.687, Maximum measured 122.922 %, Maximum response 100 %, Minimum measured 8.802 %, R squared 0.907) was 5.57 µM.

`CC(C)[C@@H](Nc1ncnc2[nH]c(-c3ccc4cncn4c3)cc12)c1ccc2c(c1)S(=O)(=O)CCC2` gave an EC50 [1] of 7.12 µM and an EC90 (Severe acute respiratory syndrome coronavirus 2, HeLa-ACE2, Baseline response 0 %, Hill slope -0.819, Maximum measured 92.609 %, Maximum response 100 %, Minimum measured 28.375 %, R squared 0.905) greater than 20 µM.

`CC(C)[C@@H](Nc1ncnc2[nH]c(-c3cnn(CC(=O)N(C)C)c3)cc12)c1ccc2c(c1)S(=O)(=O)CCC2` showed an EC50 [1] greater than 20 µM and an EC90 (Severe acute respiratory syndrome coronavirus 2, HeLa-ACE2, Baseline response 0 %, Hill slope -0.117, Maximum measured 98.615 %, Maximum response 100 %, Minimum measured 84.991 %, R squared 0.091) greater than 20 µM.

`CC(C)[C@@H](Nc1ncnc2[nH]c(-c3cnn(C)c3)cc12)c1ccc2c(c1)S(=O)(=O)NCC2` showed an EC50 [1] greater than 20 µM and an EC90 (Severe acute respiratory syndrome coronavirus 2, HeLa-ACE2, Baseline response 0 %, Hill slope -6.715, Maximum measured 105.419 %, Maximum response 100 %, Minimum measured 69.993 %, R squared 0.42) greater than 20 µM.

`CC(C)[C@@H](Nc1ncnc2[nH]c(-c3cncc(S(C)(=O)=O)c3)cc12)c1ccc2c(c1)S(=O)(=O)CCC2` was tested, and the EC50 [1] was greater than 20 µM and the EC90 (Severe acute respiratory syndrome coronavirus 2, HeLa-ACE2, Maximum measured 119.816 %, Minimum measured 96.629 %) was greater than 20 µM.

For `CCNC(=O)c1cc2c(N[C@@H](c3ccc4c(c3)S(=O)(=O)NCC4)C(C)C)ncnc2[nH]1`, the EC50 [1] was greater than 20 µM and the EC90 (Severe acute respiratory syndrome coronavirus 2, HeLa-ACE2, Maximum measured 101.15 %, Minimum measured 78.382 %) was greater than 20 µM.

Compound `CC(C)[C@@H](Nc1ncnc2[nH]c(-c3cnn(CCC(N)=O)c3)cc12)c1ccc2c(c1)OCCO2` has an EC50 [1] greater than 20 µM, an EC90 (Severe acute respiratory syndrome coronavirus 2, HeLa-ACE2, Maximum measured 112.19 %, Minimum measured 96.19 %) greater than 20 µM and an EC90 (Severe acute respiratory syndrome coronavirus 2, HeLa-ACE2, Maximum measured 121.913 %, Minimum measured 97.771 %) greater than 20 µM.

For `CNCc1cc(-c2cc3c(N[C@H](c4ccc5c(c4)S(=O)(=O)CCC5)C(C)C)ncnc3[nH]2)co1`, the EC50 [1] was 11.1 µM and the EC90 (Severe acute respiratory syndrome coronavirus 2, HeLa-ACE2, Baseline response 0 %, Hill slope -0.715, Maximum measured 94.818 %, Maximum response 100 %, Minimum measured 27.713 %, R squared 0.683) was greater than 20 µM.

Compound `CCNC(=O)c1cc2c(N[C@@H](c3ccc4c(c3)S(=O)(=O)CCC4)C(C)C)ncnc2[nH]1` has an EC50 [1] greater than 20 µM and an EC90 (Severe acute respiratory syndrome coronavirus 2, HeLa-ACE2, Baseline response 0 %, Hill slope -4.495, Maximum measured 108.517 %, Maximum response 100 %, Minimum measured 90.612 %, R squared 0.096) greater than 20 µM.

`CC(C)[C@@H](Nc1ncnc2[nH]c(-c3cnn(CC(=O)N(C)C)c3)cc12)c1ccc2c(c1)OCCO2` was tested, and the EC50 [1] was greater than 20 µM, the EC90 (Severe acute respiratory syndrome coronavirus 2, HeLa-ACE2, Baseline response 0 %, Hill slope -0.679, Maximum measured 102.904 %, Maximum response 100 %, Minimum measured 72.697 %, R squared 0.733) was greater than 20 µM and the EC90 (Severe acute respiratory syndrome coronavirus 2, HeLa-ACE2, Baseline response 0 %, Hill slope -5.712, Maximum measured 120.313 %, Maximum response 100 %, Minimum measured 86.961 %, R squared 0.099) was greater than 20 µM.

`CC(C)(C)[C@H](Nc1ncnc2[nH]c(-c3cnn(CC(N)=O)c3)cc12)c1ccc2c(c1)OCCO2` gave an EC50 [1] greater than 20 µM and an EC90 (Severe acute respiratory syndrome coronavirus 2, HeLa-ACE2, Baseline response 0 %, Hill slope -0.655, Maximum measured 108.484 %, Maximum response 100 %, Minimum measured 91.129 %, R squared 0.123) greater than 20 µM.

Work on `CCNC(=O)c1cc2c(N[C@@H](c3ccc4c(c3)S(=O)(=O)CCO4)C(C)C)ncnc2[nH]1` yielded an EC50 [1] greater than 20 µM and an EC90 (Severe acute respiratory syndrome coronavirus 2, HeLa-ACE2, Baseline response 0 %, Hill slope -0.398, Maximum measured 111.753 %, Maximum response 100 %, Minimum measured 79.377 %, R squared 0.175) greater than 20 µM.

`CC(C)[C@@H](Nc1ncnc2[nH]ccc12)c1ccc2c(c1)S(=O)(=O)CCO2` was tested, and the EC50 [1] was greater than 20 µM and the EC90 (Severe acute respiratory syndrome coronavirus 2, HeLa-ACE2, Baseline response 0 %, Hill slope -0.245, Maximum measured 99.283 %, Maximum response 100 %, Minimum measured 83.757 %, R squared 0.186) was greater than 20 µM.

In the case of `CC(C)[C@H](Nc1ncnc2[nH]c(-c3cnn(C)c3C#N)cc12)c1ccc2c(n1)NC(=O)CO2`, the EC50 [1] is reported as 0.858 µM and the EC90 (Severe acute respiratory syndrome coronavirus 2, HeLa-ACE2, Baseline response 0 %, Hill slope -0.619, Maximum measured 70.604 %, Maximum response 100 %, Minimum measured 3.388 %, R squared 0.805) is reported as greater than 20 µM.

For `CCNC(=O)c1cc2c(N[C@H](c3ccc4c(c3)OCCO4)C(C)C)ncnc2[nH]1`, the EC50 [1] was 19.7 µM and the EC90 (Severe acute respiratory syndrome coronavirus 2, HeLa-ACE2, Baseline response 0 %, Hill slope -1.464, Maximum measured 109.949 %, Maximum response 100 %, Minimum measured 49.504 %, R squared 0.869) was greater than 20 µM.

For `CC(C)[C@@H](Nc1ncnc2[nH]cc(C(=O)NC3CC3)c12)c1ccc2c(c1)S(=O)(=O)CCC2`, the EC50 [1] was 14.4 µM and the EC90 (Severe acute respiratory syndrome coronavirus 2, HeLa-ACE2, Baseline response 0 %, Hill slope -1.207, Maximum measured 103.36 %, Maximum response 100 %, Minimum measured 37.723 %, R squared 0.64) was greater than 20 µM.

For `COc1ccc([C@@H](Cc2nnn[nH]2)NC(=O)c2ncnc3[nH]ccc23)cc1`, the EC50 [1] was greater than 20 µM and the EC90 (Severe acute respiratory syndrome coronavirus 2, HeLa-ACE2, Maximum measured 136.92 %, Minimum measured 93.837 %) was greater than 20 µM.

Work on `CC(C)[C@@H](Nc1ncnc2[nH]c(-c3ccc4nnn(C)c4c3)cc12)c1ccc2c(c1)S(=O)(=O)CCC2` yielded an EC50 [1] of 3.64 µM and an EC90 (Severe acute respiratory syndrome coronavirus 2, HeLa-ACE2, Baseline response 0 %, Hill slope -0.69, Maximum measured 110.665 %, Maximum response 100 %, Minimum measured 33.895 %, R squared 0.849) greater than 20 µM.

`CNC(=O)c1cccc(-c2cc3c(N[C@@H](c4ccc5c(c4)S(=O)(=O)CCC5)C(C)C)ncnc3[nH]2)c1` gave an EC50 [1] greater than 20 µM and an EC90 (Severe acute respiratory syndrome coronavirus 2, HeLa-ACE2, Baseline response 0 %, Hill slope -1.505, Maximum measured 108.746 %, Maximum response 100 %, Minimum measured 56.34 %, R squared 0.642) greater than 20 µM.

`CNC(=O)c1cccc(-c2cc3c(N[C@H](c4ccc5c(c4)S(=O)(=O)CCC5)C(C)C)ncnc3[nH]2)c1` showed an EC50 [1] greater than 20 µM and an EC90 (Severe acute respiratory syndrome coronavirus 2, HeLa-ACE2, Baseline response 0 %, Hill slope -6.666, Maximum measured 112.086 %, Maximum response 100 %, Minimum measured 84.591 %, R squared 0.065) greater than 20 µM.

With `CC(C)[C@H](Nc1ncnc2[nH]c(-c3cnn(C)c3)cc12)c1ccc2c(c1)S(=O)(=O)CCC2` the EC50 [1] was greater than 20 µM and the EC90 (Severe acute respiratory syndrome coronavirus 2, HeLa-ACE2, Baseline response 0 %, Hill slope -1.829, Maximum measured 111.115 %, Maximum response 100 %, Minimum measured 52.798 %, R squared 0.593) was greater than 20 µM.

In the case of `CNC(=O)c1cc2c(N[C@@H](c3ccc4c(c3)S(=O)(=O)CCC4)C(C)C)ncnc2[nH]1`, the EC50 [1] is reported as greater than 20 µM and the EC90 (Severe acute respiratory syndrome coronavirus 2, HeLa-ACE2, Maximum measured 104.869 %, Minimum measured 90.681 %) is reported as greater than 20 µM.

For `CC(C)[C@@H](Nc1ncnc2[nH]c(-c3cnn(CC(N)=O)c3)cc12)c1ccc2c(c1)S(=O)(=O)CCC2`, the EC50 [1] was greater than 20 µM and the EC90 (Severe acute respiratory syndrome coronavirus 2, HeLa-ACE2, Maximum measured 127.59 %, Minimum measured 107.301 %) was greater than 20 µM.

In the case of `CC(C)[C@H](Nc1ncnc2[nH]c(-c3cnn(C)c3C#N)cc12)c1ccc2c(c1)S(=O)(=O)CCC2`, the EC50 [1] is reported as 6.21 µM and the EC90 (Severe acute respiratory syndrome coronavirus 2, HeLa-ACE2, Baseline response 0 %, Hill slope -14.93, Maximum measured 129.006 %, Maximum response 100 %, Minimum measured 5.734 %, R squared 0.877) is reported as 7.19 µM.
